Results taken from patent US8637237B2, “Methods, compositions, and systems for the identification of species-specific or developmental stage-specific insecticides” (The University of North Carolina at Greensboro, priority 2003, dated 2014).
Values joined by “and” are separate entries in the source; they are usually repeats but may differ in a detail not shown here. Equal values may be shown once.

What was measured:
FXR = target: T1, FXR (Rattus norvegicus, UniProt Q62735); assay: cell-based; conditions: for FXR-dependent CAT activity, induction: 50 μM
T1 sequence (Q62735 1-469): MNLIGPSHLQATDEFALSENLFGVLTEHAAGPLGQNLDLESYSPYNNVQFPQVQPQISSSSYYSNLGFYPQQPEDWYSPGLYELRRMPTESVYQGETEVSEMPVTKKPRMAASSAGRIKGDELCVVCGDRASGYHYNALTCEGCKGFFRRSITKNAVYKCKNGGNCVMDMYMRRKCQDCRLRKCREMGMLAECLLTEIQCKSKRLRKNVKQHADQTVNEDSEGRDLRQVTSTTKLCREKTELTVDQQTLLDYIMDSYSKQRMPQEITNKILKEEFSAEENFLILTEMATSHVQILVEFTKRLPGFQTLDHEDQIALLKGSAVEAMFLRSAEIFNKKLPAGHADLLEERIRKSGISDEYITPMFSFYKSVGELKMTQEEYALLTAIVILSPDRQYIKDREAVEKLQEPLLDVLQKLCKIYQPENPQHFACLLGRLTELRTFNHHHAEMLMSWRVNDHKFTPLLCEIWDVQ
T1 sequence (P28700 1-467 partner): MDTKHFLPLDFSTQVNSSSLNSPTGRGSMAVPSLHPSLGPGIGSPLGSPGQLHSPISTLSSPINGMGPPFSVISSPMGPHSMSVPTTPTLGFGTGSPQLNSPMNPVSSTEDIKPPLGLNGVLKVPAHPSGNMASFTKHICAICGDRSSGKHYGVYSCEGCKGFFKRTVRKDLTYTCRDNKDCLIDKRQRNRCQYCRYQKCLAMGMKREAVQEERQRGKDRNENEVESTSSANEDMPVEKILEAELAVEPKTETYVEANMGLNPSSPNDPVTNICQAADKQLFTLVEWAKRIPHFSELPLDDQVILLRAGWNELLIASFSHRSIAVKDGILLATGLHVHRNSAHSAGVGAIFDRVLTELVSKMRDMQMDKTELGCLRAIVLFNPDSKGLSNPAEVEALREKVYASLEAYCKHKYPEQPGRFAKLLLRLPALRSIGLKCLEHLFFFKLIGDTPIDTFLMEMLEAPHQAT
Method in brief: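 CHO cells co-transfected with FXR, mouse RXRα and a (EcRE)5-ΔMTV-CAT reporter, with β-galactosidase for normalization. An RXR-dependent CRBPII-CAT reporter was run in parallel. Cells were exposed to candidate juvenoids for 24 h; CAT activity normalized to β-gal and expressed as fold induction over vehicle controls.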

FXR and USP = target: T2, FXR and USP (Rattus norvegicus, UniProt Q62735); assay: FXR with USP, reporter in CHO cells; format: cell-based
T2 construct: expressed in transfected cells; host or cells: CHO
T2 sequence (Q62735 1-469): T1 sequence (Q62735 1-469)
Protocol: These experiments employed a mammalian cell culture system using Chinese hamster ovary cells (CHO) to evaluate the transcriptional function of Drosophila melanogaster EcR and USP using methods described previously (U.S. Patent Application Publication No: 2005/0049230; Henrich et al, 2003). Cells were seeded in 6-well polypropylene culture plates (Falcon) with 10^5 cells per well on the day prior to transfection. Transfection was subsequently performed using either calcium phosphate (Kitareewan et al., 1996, Mol. Biol. Cell, 7:1153-1196) or a GenePorter reagent (Gene Therapy Systems, Inc; San Diego, Calif.) following manufacturer's protocols. Each well received 1.25 μg of (EcRE)5-ΔMTV-CAT (five copies of the hsp27 EcRE inserted into an mouse mammary tumor virus (MTV) promoter upstream of the chloramphenicol acetyltransferase (CAT) gene) or (EcRE)5-ΔMTV-LUC (the same promoter attached to firefly luciferase), 1.25 μg of pCH111 (SV40 early promoter linked to the β-galactosidase gene) to normalize CAT activity, and 0.25 μg of each expression plasmid (EcR, FXR, RXR, USP) that was tested. The cells were incubated with plasmid DNA for seven hours and then washed with 1×PBS. Muristerone A (murA; Alexis Biochemicals) or 20-hydroxyecdysone (20E; Sigma) dissolved in ethanol to a concentration of 10 mM was diluted as necessary to the final assay concentration (FAC) in 2 ml of fresh incubation medium that was then applied to the cells. Similarly, JHIII (Sigma) was dissolved in dimethyl sulfoxide (DMSO) to a concentration of 80 μM and diluted into the incubation medium to its final assay concentration (20, 40, 80, 160 μM). […] A corresponding volume of ethanol and DMSO were added to control cells for all experiments. For all experiments, the cells were allowed to incubate with the medium for 24 hours before collection and cell lysates were prepared by described methods (Kitareewan et al., 1996). Both β-galactosidase and CAT reporter activity were measured based on previously used methods (Kitareewan et al, 1996). […]

[1] = final dose of 50 ∝M, 1 = induction less than 2-fold below cytotoxic doses

Compound	FXR-dependent activity, induction (FXR; dose not stated)	elevation of FXR-mediated activity by ecdysteroid added with JHIII (FXR and USP)	FXR ACTIVITY (fold-induction) (FXR; [1])	FXR-dependent CAT activity, induction (FXR)	other results
CC(C)(O)CC[C@@H](O)[C@](C)(O)[C@H]1CC[C@@]2(O)C3=CC(=O)[C@@H]4C[C@@H](O)[C@@H](O)C[C@]4(C)[C@H]3CC[C@]12C [20E, 20-hydroxyecdysone]	unresponsive	no elevation			
COC(=O)/C=C(\C)CC/C=C(\C)CC[C@H]1OC1(C)C [JHIII, juvenile hormone III]			20 fold-induction		dose that elicits FXR-dependent activity in the CHO assay (FXR): 2 µM; FXR-dependent CAT activity, induction (FXR; listed as JH III): 15 fold; FXR-dependent CAT activity, induction (FXR; listed as juvenile hormone III): 20 fold; response of FXR and USP to JHIII (FXR and USP; CHO cells): low level response
CC(C)=CCCC(C)=CCCC(C)=CC(=O)O [farnesoic acid]			3 fold-induction	2 fold and 3 fold	
COC(=O)/C=C(\C)CC/C=C(\C)CCC=C(C)C [methyl farnesoate]				6 fold	
CC(C)CC[C@@H](O)[C@](C)(O)[C@H]1CC[C@@]2(O)C3=CC(=O)[C@]4(O)C[C@@H](O)[C@@H](O)C[C@]4(C)[C@H]3[C@H](O)C[C@]12C [murA, muristerone A]	unresponsive	no elevation			
juvocimene					FXR-dependent activity, induction (FXR; 25 μM): 5 fold; FXR ACTIVITY (fold-induction) (FXR; dose 25 μM): 9 fold-induction; RXR mediated transcription, increase (FXR; plant-derived JH agonists examined as FXR effectors): 10 fold
